Laboratory results taken from patent publication US20220184071A1, “GEPOTIDACIN FOR USE IN THE TREATMENT OF BACTERIAL URINARY TRACT INFECTIONS” (GlaxoSmithKline Intellectual Property Development Limited, priority 2019, published 2022).
Converted amounts (≈) assume the structure as drawn.

Experiments:
[1] = test system: Enterobacter (Enterobacter aerogenes, Enterobacter cloacae complex); assay: MIC by CLSI agar dilution, Example 1 Method 2; type: cell-based; conditions: n = 55
Description: (§1) Antimicrobial activity was determined in a second study by […] using the CLSI recommended procedure in serial two-fold dilutions and the minimum inhibitory concentration (MIC) was determined as the lowest concentration of the compound that inhibited visible growth.
(§2) MICs were determined according to CLSI agar dilution guidelines.

[2] = test system: Klebsiella (Klebsiella oxytoca, Klebsiella variicola, Klebsiella pneumoniae); assay: MIC by CLSI agar dilution, Example 1 Method 2; type: cell-based; conditions: n = 55
Description: as §1, §2

[3] = test system: Klebsiella oxytoca, Klebsiella variicola, Proteus hauseri and Proteus peneri; assay: MIC by CLSI agar dilution, Example 1 Method 2; type: cell-based; conditions: in each case against at least one isolate
Description: as §1, §2

[4] = test system: Proteus (Proteus mirabilis, Proteus penneri, Proteus hauseri); assay: MIC by CLSI agar dilution, Example 1 Method 2; type: cell-based; conditions: n = 56
Description: as §1, §2

Shigella boydii = assay: MIC by CLSI agar dilution, Example 1 Method 2; type: cell-based; conditions: n=3
Description: as §1, §2

Shigella flexneri = assay: MIC by CLSI agar dilution, Example 1 Method 2; type: cell-based; conditions: n=24
Description: as §1, §2

Shigella sonnei = assay: MIC by CLSI agar dilution, Example 1 Method 2; type: cell-based; conditions: n=64
Description: as §1, §2

Shigella = assay: MIC by CLSI agar dilution, Example 1 Method 2; type: cell-based
Description: as §1, §2

[5] = Phase IIa clinical efficacy (ITT population); type: in vivo, human
Description: This phase IIa single center study evaluated the safety, tolerability, pharmacokinetics, and efficacy of oral gepotidacin 1500 mg BID for 5 days in female subjects with acute cystitis. Clean catch mid-stream urine specimens were obtained for quantitative culture by standard methods. Urine samples were taken from all participants pre-treatment (baseline) and at all post-baseline visits. All urine samples were sent to a central laboratory (PPD Global Clinical Laboratories, Highland Heights, Ky., USA) for Gram stain, quantitative culture, pathogen identification and susceptibility testing. See FIG. 1 for participant disposition and study outline.
Serial blood and urine PK sampling were performed for the first dose of study treatment on Day 1 and for the time-matched dose on Day 4. Participants took all doses of gepotidacin with food and remained in the clinic to complete a total of 10 doses. Participants were instructed to return for the TOC (Day 10 to 13) and Follow-up (Day 28±3) Visits.
The mean total clinical symptom score in the ITT Population at Baseline was 7.9 (range: 4 to 12) for 4 categories of acute cystitis symptoms consisting of dysuria, frequency, urgency, and lower abdominal or suprapubic pain (score range for each category was 0 to 3). Of the 22 participants enrolled in this Phase IIa study, 19 (86%) and 18 participants (82%) achieved a clinical response of clinical success at the TOC and Follow-up Visits, respectively. […] Lower abdominal or suprapubic pain at Baseline was the most variable symptom category with half of the participants reporting low scores of 0 (27%) or 1 (23%) and the other half of participants reporting high scores of 2 (41%) or 3 (9%). For the other symptom categories, the majority of participants scored a 2.

[6] = test system: S. lugdenensis, S. agalactiae, Streptococcus group G and Streptococcus group F; assay: MIC by CLSI broth microdilution, Example 5 second study; type: cell-based; conditions: at least one strain of every organism listed
Excerpt: A second study tested gepotidacin by CLSI broth microdilution against bacterial isolates collected from patients with acute bacterial skin and soft tissue infections between 2013-2014.
Amoxicillin/clavulanic acid, linezolid, fusidic acid, ceftriaxone, ceftaroline, vancomycin, penicillin, quinupristin/dalfopristin, erythromycin, clindamycin, meropenem, tetracycline, chloramphenicol, flucloxacillin, telavancin, daptomycin, trimethoprim/sulfamethoxazole, gentamicin, levofloxacin, tigecycline and cefuroxime were included as comparators. MICs were determined by broth microdilution according to CLSI methods.
In addition, MICs were determined by broth microdilution according CLSI methods and all the comparators from the list above were evaluated against gram-positive aerobe organisms selected from S. lugdenensis, S. agalactiae, Streptococcus group G and Streptococcus group F.

With `O=c1ccc2ncc(=O)n3c2n1C[C@H]3CN1CCC(NCc2cc3c(cn2)OCCC3)CC1` [gepotidacin, (2R)-2-({4-[(3,4-dihydro-2H-pyrano[2,3-c]pyridin-6-ylmethyl)amino]-1-piperidinyl}methyl)-1,2-dihydro-3H,8H-2a,5,8a-triazaacenaphthylene-3,8-dione] the MIC50 [1] was 16 µg/mL (≈ 35.7 µM), the MIC90 [1] was 32 µg/mL (≈ 71.3 µM) and the “Number of Isolates at Gepotidacin MIC 2 mg/L” value [1] was 3. The “Number of Isolates at Gepotidacin MIC 4 mg/L” value [1] was 12, the “Number of Isolates at Gepotidacin MIC 8 mg/L” value [1] was 7 and the “Number of Isolates at Gepotidacin MIC ≤0.25 mg/L” value [1] was 1. For the same molecule, the “Number of Isolates at Gepotidacin MIC ≥16 mg/L” value [1] was 32, the MIC50 [2] was 16 µg/mL (≈ 35.7 µM) and the MIC90 [2] was 64 µg/mL (≈ 143 µM). For the same molecule, the “Number of Isolates at Gepotidacin MIC 1 mg/L” value [2] was 1, the “Number of Isolates at Gepotidacin MIC 4 mg/L” value [2] was 6 and the “Number of Isolates at Gepotidacin MIC 8 mg/L” value [2] was 14. For the same molecule, the “Number of Isolates at Gepotidacin MIC ≥16 mg/L” value [2] was 34, the MIC [3] was no less than 4 µg/mL and the MIC50 [4] was 8 µg/mL (≈ 17.8 µM). For the same molecule, the MIC90 [4] was 32 µg/mL (≈ 71.3 µM), the “Number of Isolates at Gepotidacin MIC 0.5 mg/L” value [4] was 3 and the “Number of Isolates at Gepotidacin MIC 1 mg/L” value [4] was 4. The “Number of Isolates at Gepotidacin MIC 2 mg/L” value [4] was 11, the “Number of Isolates at Gepotidacin MIC 4 mg/L” value [4] was 9 and the “Number of Isolates at Gepotidacin MIC 8 mg/L” value [4] was 10. For the same molecule, the “Number of Isolates at Gepotidacin MIC ≥16 mg/L” value [4] was 19, the MIC (Shigella boydii) was 2 µg/mL (≈ 4.46 µM) and the MIC90 (Shigella flexneri) was 2 µg/mL (≈ 4.46 µM). For the same molecule, the MIC90 (Shigella sonnei) was 2 µg/mL (≈ 4.46 µM), the “% of the tested isolates inhibited at ≤2 mg/L” value (Shigella; 91 isolates) was 95.6% and the “% of the tested isolates inhibited at ≤8 mg/L” value (Shigella; 91 isolates) was 100%. For the same molecule, the MICs ranged (Shigella; 91 isolates) was 0.125 to 8 mg/L, the MIC50 (Shigella; Shigella, n = 91) was 1 µg/mL (≈ 2.23 µM) and the MIC90 (Shigella; Shigella, n = 91) was 2 µg/mL (≈ 4.46 µM). For the same molecule, the “Number of Isolates at Gepotidacin MIC 0.5 mg/L” value (Shigella; n = 91) was 18, the “Number of Isolates at Gepotidacin MIC 1 mg/L” value (Shigella; n = 91) was 36 and the “Number of Isolates at Gepotidacin MIC 2 mg/L” value (Shigella; n = 91) was 19. For the same molecule, the “Number of Isolates at Gepotidacin MIC 4 mg/L” value (Shigella; n = 91) was 3, the “Number of Isolates at Gepotidacin MIC 8 mg/L” value (Shigella; n = 91) was 1 and the “Number of Isolates at Gepotidacin MIC ≤0.25 mg/L” value (Shigella; n = 91) was 14. For the same molecule, the “Effect of levofloxacin non-susceptibility or QRDR substitutions in GyrA and ParC on activity” value (Shigella; where data was available) was “unaffected”, the “participants with clinical response of clinical success” value ([5]; TOC Visit, 22 participants) was 19 (86%) and the “participants with symptom resolution” value ([5]; at Follow-up) was 20 participants. For the same molecule, the “participants with symptom resolution (clinical signs and symptom score of 0)” value ([5]; at TOC) was 19 participants, the “time to significant improvement of clinical symptoms (all subjects)” value ([5]; dysuria, frequency, urgency, lower abdominal pain) was 24 to 48 h and the MIC [6] was no more than 2 µg/mL.
